Measured values from patent US10023591B2, “Heterocyclic derivatives and use thereof” (C&C RESEARCH LABORATORIES, priority 2014, dated 2018).
Where two headings read alike, the source gives them in different places.

Legend:
STAT3 = STAT3 reporter gene assay (luciferase), LNCaP stable cell line pSTAT3-TA-luc, IL-6 stimulation; assay type: cell-based, human
Experimental: 1-1) Experiment on the Inhibition of STAT3 Activity
A human prostate cancer cell line (LNCaP stable cell line; plasmid pSTAT3-TA-luc), which contains a stably operating STAT3 promoter, was cultured in RPMI1640 medium (Cat No. 11875, Life Technologies) containing 10% fetal bovine serum (FBS) (Cat No. SH30396, Thermo Scientific) and 150 μg/mL G-418 solution (Cat No. 04 727 894 001, Roche). The reporter gene assay using LNCaP stable cell line was performed in RPMI1640 medium containing 3% DCC-FBS without G-418 solution. LNCaP stable cells were plated in two (2) white 96-well plates with 30,000 cells/50 μL in each well. The cells were cultured at 37° C., under 5% CO2 for 24 hours, and then treated with the compounds listed in Examples which were diluted in various concentrations. Subsequently, IL-6 was added to each well with a final concentration of 10 ng/mL. Upon completion of the treatment with the compounds and IL-6, the cells were cultured at 37° C., under 5% CO2 for 24 hours. The plates were observed under microscope and drug precipitation and particular findings were investigated and recorded.
(§1) The luciferase assay and the cell viability assay were performed respectively with one of the two plates. For the luciferase assay, the liquid media in the 96-well plate was removed, and then, 20 μL, of passive cell lysis buffer was added to each well. After shaking the plate for 30 minutes, luciferase activities of each well were measured in a PHERAstar™ microplate reader (BMG LABTECH) using a luciferase assay system (Cat No. E1501, Promega). For the cell viability assay, the 96-well plate was placed at room temperature for 30 minutes, added with 20 μL/well of CellTiter-Glo solution (Cat No. G7573, Promega), and shaken for 10 minutes in order to measure cytotoxicity caused by the compounds listed in Examples with a PHERAstar™ microplate reader (BMG LABTECH). Wells without 0.1% DMSO and stimulation were used as a negative control and wells with 0.1% DMSO and stimulation were used as a positive control.
(§2) The results of evaluation on the inhibitory effect of the compounds listed in the Examples on the dimerization of STAT3 and STAT1 obtained via the STAT3 and STAT1 reporter gene assays are shown in Table 9 below.

STAT1 = STAT1 reporter gene assay (luciferase), U2OS stable cell line pGL4-STAT1-TA-luc, IFN-γ stimulation; assay type: cell-based, human; settings: IFN-γ 50 ng/mL, 8 hours, read-out: IC50 (μM) pSTAT1
Experimental: 1-2) Experiment on the Inhibition of STAT1 Activity
A human osteosarcoma cell line (U2OS stable cell line; pGL4-STAT1-TA-luc), which contains a stably operating STAT1 promoter, was cultured in McCoy 5′A medium (Cat No. 16600, Life Technologies) containing 10% FBS (Cat No. SH30396, Thermo Scientific) and 1000 μg/mL G418 solution (Cat No. 04 727 894 001, Roche). The reporter gene assay using U2OS stable cell line was performed in McCoy 5′A medium containing 10% FBS without G-418 solution. U2OS stable cells were plated in two (2) white 96-well plates with 25,000 cells/50 pt in each well. The cells were cultured at 37° C., under 5% CO2 for 24 hours, and then treated with the compounds listed in Examples which were diluted in various concentrations. Subsequently, IFN-γ was added to each well with a final concentration of 50 ng/mL. Upon completion of the treatment with the compounds and IFN-γ, the cells were cultured at 37° C., under 5% CO2 for 8 hours. The plates were observed under microscope and drug precipitation and particular findings were investigated and recorded.
as §1, with “of” for “of the”, “μL” for “μL,”
as §2

Molecule | IC50 (STAT3; Homo sapiens) | IC50 (STAT1; Homo sapiens) | IC50 (STAT3) | IC50 (STAT1)
COc1cc(NC(=O)c2cc3cc(C(C)(C)S(C)(=O)=O)ccc3s2)cc(C(C)(C)c2cc(OC)cc(OC(F)(F)F)c2)c1 [Example 6, N-(3-methoxy-5-(2-(3-methoxy-5-(trifluoromethoxy)phenyl)propan-2-yl)phenyl)-5-(2-(methylsulfonyl)propan-2-yl)benzo[b]thiophene-2-carboxamide] | 0.019 µM | > 50 µM |  | 
CC(C)(c1cc(Br)cc(NC(=O)c2cc3cc(C(C)(C)S(C)(=O)=O)ccc3s2)c1)c1cc(OC(F)(F)F)cc(OC(F)(F)C(F)F)c1 [Example 4, N-(3-bromo-5-(2-(3-(1,1,2,2-tetrafluoroethoxy)-5-(trifluoromethoxy)phenyl)propan-2-yl)phenyl)-5-(2-(methylsulfonyl)propan-2-yl)benzo[b]thiophene-2-carboxamide] | 0.0091 µM | > 50 µM |  | 
CCOc1cc(OC(F)(F)F)cc(C(C)(C)c2cc(Cl)cc(NC(=O)c3cc4cc(C(C)(C)S(C)(=O)=O)ccc4s3)c2)c1 [Example 1, N-(3-chloro-5-(2-(3-ethoxy-5-(trifluoromethoxy)phenyl)propan-2-yl)phenyl)-5-(2-(methylsulfonyl)propan-2-yl)benzo[b]thiophene-2-carboxamide] | 0.0076 µM | > 50 µM |  | 
CC(C)(c1ccc(Cl)cc1)c1cc(Cl)cc(NC(=O)c2cc3ccc(C(C)(C)S(C)(=O)=O)cc3[nH]2)c1 [Example 35, N-(3-chloro-5-(2-(4-chlorophenyl)propan-2-yl)phenyl)-6-(2-(methylsulfonyl)propan-2-yl)-1H-indole-2-carboxamide] | 0.1 µM | > 50 µM |  | 
CC(C)(c1ccc2sc(C(=O)Nc3cc(Cl)nc(OC4CCN5CCCC5C4)c3)cc2c1)S(C)(=O)=O (centres unmarked) [Example 102, N-(2-chloro-6-((octahydroindolizin-7-yl)oxy)pyridin-4-yl)-5-(2-(methylsulfonyl)propan-2-yl)benzo[b]thiophene-2-carboxamide] | 2.1 µM | 14.5 µM |  | 
CC(C)(c1ccc2sc(C(=O)Nc3cc(Cl)nc(Oc4ccc(Cl)cn4)c3)cc2c1)S(C)(=O)=O [Example 85, N-(2-chloro-6-((5-chloropyridin-2-yl)oxy)pyridin-4-yl)-5-(2-(methylsulfonyl)propan-2-yl)benzo[b]thiophene-2-carboxamide] | 0.11 µM | > 50 µM |  | 
CC(C)(c1ccc(Cl)cc1)c1cc(Cl)cc(NC(=O)c2cc3cc(C(C)(C)S(C)(=O)=O)ncc3s2)c1 [Example 26, N-(3-chloro-5-(2-(4-chlorophenyl)propan-2-yl)phenyl)-5-(2-(methylsulfonyl)propan-2-yl)thieno[2,3-c]pyridine-2-carboxamide] | 0.065 µM | > 50 µM |  | 
CC(C)(c1ccc2sc(C(=O)Nc3cc(Oc4ccc(Cl)cc4)nc(Cl)n3)cc2c1)S(C)(=O)=O [Example 75, N-(2-chloro-6-(4-chlorophenoxy)pyrimidin-4-yl)-5-(2-(methylsulfonyl)propan-2-yl)benzo[b]thiophene-2-carboxamide] | 0.24 µM | > 50 µM |  | 
CC(C)(c1ccc2sc(C(=O)Nc3cc(Oc4ccc(Cl)cc4)cc(N4CCC4)c3)cc2c1)S(C)(=O)=O [Example 59, N-(3-(azetidin-1-yl)-5-(4-chlorophenoxy)phenyl)-5-(2-(methylsulfonyl)propan-2-yl)benzo[b]thiophene-2-carboxamide] | 0.31 µM | > 50 µM |  | 
COc1cc(OC(F)(F)F)cc(C(C)(C)c2cccc(NC(=O)c3cc4cc(C(C)(C)S(C)(=O)=O)ccc4s3)c2)c1 [Example 3, N-(3-(2-(3-methoxy-5-(trifluoromethoxy)phenyl)propan-2-yl)phenyl)-5-(2-(methylsulfonyl)propan-2-yl)benzo[b]thiophene-2-carboxamide] | 0.0098 µM | > 50 µM |  | 
COc1ccc(C(C)(C)c2cc(Cl)cc(NC(=O)c3cc4cc(C(C)(C)S(C)(=O)=O)ccc4s3)c2)s1 [Example 29, N-(3-chloro-5-(2-(5-methoxythiophen-2-yl)propan-2-yl)phenyl)-5-(2-(methylsulfonyl)propan-2-yl)benzo[b]thiophene-2-carboxamide] | 0.0041 µM | > 50 µM |  | 
CC(C)(c1ccc2sc(C(=O)Nc3cc(Cl)nc(Oc4ccc(Cl)nc4)c3)cc2c1)S(C)(=O)=O [Example 65, N-(2-chloro-6-((6-chloropyridin-3-yl)oxy)pyridin-4-yl)-5-(2-(methylsulfonyl)propan-2-yl)benzo[b]thiophene-2-carboxamide] | 0.079 µM | > 50 µM |  | 
COc1cc(OC(F)(F)F)cc(C(C)(C)c2cc(Cl)cc(NC(=O)c3cc4cc(C(C)(C)S(C)(=O)=O)ccc4s3)c2)c1 [Example 7, N-(3-chloro-5-(2-(3-methoxy-5-(trifluoromethoxy)phenyl)propan-2-yl)phenyl)-5-(2-(methylsulfonyl)propan-2-yl)benzo[b]thiophene-2-carboxamide] | 0.0088 µM | > 50 µM |  | 
N-(3-chloro-5-(2-(3-chloro-5-methoxyphenyl)propan-2-yl)phenyl)-5-(2-(methylsulfonyl)propan-2-yl)benzo[b]thiophene-2-carboxamide [Example 55] |  |  | 0.0022 µM | > 50 µM
CC#Cc1cc(OC(F)(F)F)cc(C(C)(C)c2cc(Cl)cc(NC(=O)c3cc4cc(C(C)(C)S(C)(=O)=O)ccc4s3)c2)c1 [Example 87, N-(3-chloro-5-(2-(3-(prop-1-yn-1-yl)-5-(trifluoromethoxy)phenyl)propan-2-yl)phenyl)-5-(2-(methylsulfonyl)propan-2-yl)benzo[b]thiophene-2-carboxamide] | 0.0097 µM | > 50 µM |  | 
CC(C)(c1cc(Cl)cc(NC(=O)c2cc3cc(C(C)(C)S(C)(=O)=O)ccc3s2)c1)c1cc(OC(F)(F)F)cc(OC(F)(F)C(F)F)c1 [Example 5, N-(3-chloro-5-(2-(3-(1,1,2,2-tetrafluoroethoxy)-5-(trifluoromethoxy)phenyl)propan-2-yl)phenyl)-5-(2-(methylsulfonyl)propan-2-yl)benzo[b]thiophene-2-carboxamide] | 0.028 µM | > 50 µM |  | 
CCCOc1cc(OC(F)(F)F)cc(C(C)(C)c2cc(Cl)cc(NC(=O)c3cc4cc(C(C)(C)S(C)(=O)=O)ccc4s3)c2)c1 [Example 2, N-(3-chloro-5-(2-(3-propoxy-5-(trifluoromethoxy)phenyl)propan-2-yl)phenyl)-5-(2-(methylsulfonyl)propan-2-yl)benzo[b]thiophene-2-carboxamide] | 0.008 µM | > 50 µM |  | 
CC(C)c1ccc(C(C)(C)c2cc(Cl)cc(NC(=O)c3cc4cc(C(C)(C)S(C)(=O)=O)ccc4s3)c2)s1 [Example 28, N-(3-chloro-5-(2-(5-isopropylthiophen-2-yl)propan-2-yl)phenyl)-5-(2-(methylsulfonyl)propan-2-yl)benzo[b]thiophene-2-carboxamide] | 0.0085 µM | > 50 µM |  | 
COc1cc(OC(F)(F)F)cc(C(C)(C)c2cc(NC(=O)c3cc4cc(C(C)(C)S(C)(=O)=O)ccc4s3)cc(Cl)n2)c1 [Example 90, N-(2-chloro-6-(2-(3-methoxy-5-(trifluoromethoxy)phenyl)propan-2-yl)pyridin-4-yl)-5-(2-(methylsulfonyl)propan-2-yl)benzo[b]thiophene-2-carboxamide] | 0.011 µM | > 50 µM |  | 
